Laboratory results from PubChem BioAssay AID2060512 (Molecular Pharmacology Branch, DTP, NCI, 2025).
pIC50: −log10 of the molar value.

Tested on: 186277-243-T-J2-PDC complex spheroid viability
Assay: Anticancer human tumor 186277-243-T-J2-PDC patient-derived colon adenocarcinoma cell line growth inhibition [GQUAD]
Settings: for pIC50: curve of first compound; for viability, T/C: stronger effect = lower value
In short: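 Tumor cells were grown as complex spheroids with HUVEC endothelial cells and mesenchymal stem cells as stroma. G-quadruplex stabilizers were combined with targeted agents over half-log dilutions from near the clinical Cmax, or from 10 microM.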

[1] = second compound 0.0316 µM, first compound 0.0316 µM
[2] = second compound 0.0316 µM, first compound 0.316 µM
[3] = second compound 0.1 µM, first compound 0.0316 µM
[4] = second compound 0.1 µM, first compound 0.316 µM
[5] = second compound 0.316 µM, first compound 0.0316 µM
[6] = second compound 0.316 µM, first compound 0.316 µM
[7] = second compound 1 µM, first compound 0.0316 µM
[8] = second compound 1 µM, first compound 0.316 µM
[9] = second compound 3.16 µM, first compound 0.0316 µM
[10] = second compound 3.16 µM, first compound 0.316 µM
[11] = second compound 10 µM, first compound 0.0316 µM
[12] = second compound 10 µM, first compound 0.316 µM
[13] = second compound 0.0316 µM, first compound 0.1 µM
[14] = second compound 0.0316 µM, first compound 1 µM
[15] = second compound 0.0316 µM, first compound 3.16 µM
[16] = second compound 0.0316 µM, first compound 10 µM
[17] = second compound 0.1 µM, first compound 0.1 µM
[18] = second compound 0.1 µM, first compound 1 µM
[19] = second compound 0.1 µM, first compound 3.16 µM
[20] = second compound 0.1 µM, first compound 10 µM
[21] = second compound 0.316 µM, first compound 0.1 µM
[22] = second compound 0.316 µM, first compound 1 µM
[23] = second compound 0.316 µM, first compound 3.16 µM
[24] = second compound 0.316 µM, first compound 10 µM
[25] = second compound 1 µM, first compound 0.1 µM
[26] = second compound 1 µM, first compound 1 µM
[27] = second compound 1 µM, first compound 3.16 µM
[28] = second compound 1 µM, first compound 10 µM
[29] = second compound 3.16 µM, first compound 0.1 µM
[30] = second compound 3.16 µM, first compound 1 µM
[31] = second compound 3.16 µM, first compound 3.16 µM
[32] = second compound 3.16 µM, first compound 10 µM
[33] = second compound 10 µM, first compound 0.1 µM
[34] = second compound 10 µM, first compound 1 µM
[35] = second compound 10 µM, first compound 3.16 µM
[36] = second compound 10 µM, first compound 10 µM
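Note: spheroids exposed to drugs for 7 days.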
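Throughout, for viability, T/C: 100% = DMSO vehicle control viability.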

## Cc1[nH]c2ccccc2c1CCNCc1ccc(/C=C/C(=O)NO)cc1 + CN(C)c1ccc(Nc2c3ccc(NC(=O)CCN4CCCC4)cc3nc3cc(NC(=O)CCN4CCCC4)ccc23)cc1
Second compound 0.0316 µM
  pIC50: 7.24
Second compound 0.1 µM
  pIC50: 7.25
Second compound 0.316 µM
  pIC50: 7.23
Second compound 1 µM
  pIC50: 7.20
Second compound 3.16 µM
  pIC50: 7.23
Second compound 10 µM
  pIC50: 7.24
Second compound 0.0316 µM, first compound 0.000999 µM
  viability, T/C: 99.5%
Second compound 0.0316 µM, first compound 0.00316 µM
  viability, T/C: 86.5%
Second compound 0.0316 µM, first compound 0.00999 µM
  viability, T/C: 96.7%
[1]
  viability, T/C: 92.6%
Second compound 0.0316 µM, first compound 0.0999 µM
  viability, T/C: 12.1%
[2]
  viability, T/C: 0.65%
Second compound 0.1 µM, first compound 0.000999 µM
  viability, T/C: 115%
Second compound 0.1 µM, first compound 0.00316 µM
  viability, T/C: 93.7%
Second compound 0.1 µM, first compound 0.00999 µM
  viability, T/C: 80.6%
[3]
  viability, T/C: 84.6%
Second compound 0.1 µM, first compound 0.0999 µM
  viability, T/C: 14.9%
[4]
  viability, T/C: 0.86%
Second compound 0.316 µM, first compound 0.000999 µM
  viability, T/C: 76.5%
Second compound 0.316 µM, first compound 0.00316 µM
  viability, T/C: 96.9%
Second compound 0.316 µM, first compound 0.00999 µM
  viability, T/C: 91.7%
[5]
  viability, T/C: 87.8%
Second compound 0.316 µM, first compound 0.0999 µM
  viability, T/C: 17.7%
[6]
  viability, T/C: 2.93%
Second compound 1 µM, first compound 0.000999 µM
  viability, T/C: 86.3%
Second compound 1 µM, first compound 0.00316 µM
  viability, T/C: 94.6%
Second compound 1 µM, first compound 0.00999 µM
  viability, T/C: 87.4%
[7]
  viability, T/C: 107%
Second compound 1 µM, first compound 0.0999 µM
  viability, T/C: 21%
[8]
  viability, T/C: 1.2%
Second compound 3.16 µM, first compound 0.000999 µM
  viability, T/C: 93%
Second compound 3.16 µM, first compound 0.00316 µM
  viability, T/C: 93%
Second compound 3.16 µM, first compound 0.00999 µM
  viability, T/C: 96%
[9]
  viability, T/C: 92%
Second compound 3.16 µM, first compound 0.0999 µM
  viability, T/C: 13.1%
[10]
  viability, T/C: 1.46%
Second compound 10 µM, first compound 0.000999 µM
  viability, T/C: 82.8%
Second compound 10 µM, first compound 0.00316 µM
  viability, T/C: 92.6%
Second compound 10 µM, first compound 0.00999 µM
  viability, T/C: 97.2%
[11]
  viability, T/C: 96.2%
Second compound 10 µM, first compound 0.0999 µM
  viability, T/C: 12.4%
[12]
  viability, T/C: 0.74%

## O=C(NO)c1cnc(N2CCN(S(=O)(=O)c3ccc4ccccc4c3)CC2)nc1 + CN(C)c1ccc(Nc2c3ccc(NC(=O)CCN4CCCC4)cc3nc3cc(NC(=O)CCN4CCCC4)ccc23)cc1
Second compound 0.0316 µM
  pIC50: 6.77
Second compound 0.1 µM
  pIC50: 6.75
Second compound 0.316 µM
  pIC50: 6.74
Second compound 1 µM
  pIC50: 6.75
Second compound 3.16 µM
  pIC50: 6.74
Second compound 10 µM
  pIC50: 6.74
[1]
  viability, T/C: 103%
[13]
  viability, T/C: 87%
[2]
  viability, T/C: 7.72%
[14]
  viability, T/C: 0.27%
[15]
  viability, T/C: 0.26%
[16]
  viability, T/C: 0.18%
[3]
  viability, T/C: 90.1%
[17]
  viability, T/C: 91.3%
[4]
  viability, T/C: 7.71%
[18]
  viability, T/C: 0.23%
[19]
  viability, T/C: 0.14%
[20]
  viability, T/C: 0.15%
[5]
  viability, T/C: 105%
[21]
  viability, T/C: 94.8%
[6]
  viability, T/C: 8.34%
[22]
  viability, T/C: 0.23%
[23]
  viability, T/C: 0.12%
[24]
  viability, T/C: 0.13%
[7]
  viability, T/C: 92.1%
[25]
  viability, T/C: 90.8%
[8]
  viability, T/C: 7.85%
[26]
  viability, T/C: 0.24%
[27]
  viability, T/C: 0.13%
[28]
  viability, T/C: 0.13%
[9]
  viability, T/C: 104%
[29]
  viability, T/C: 94.2%
[10]
  viability, T/C: 9.96%
[30]
  viability, T/C: 0.26%
[31]
  viability, T/C: 0.16%
[32]
  viability, T/C: 0.15%
[11]
  viability, T/C: 92.5%
[33]
  viability, T/C: 101%
[12]
  viability, T/C: 7.98%
[34]
  viability, T/C: 0.3%
[35]
  viability, T/C: 0.21%
[36]
  viability, T/C: 0.19%

## CC1COCCN1c1cc(C2(S(C)(=N)=O)CC2)nc(-c2ccnc3[nH]ccc23)n1 (stereo unspecified) + Cc1[nH]c2ccc(F)cc2c1-c1nc2c3cccnc3c3ncccc3c2[nH]1
Second compound 0.0316 µM
  pIC50: 6.10
Second compound 0.1 µM
  pIC50: 6.08
Second compound 0.316 µM
  pIC50: 5.92
Second compound 1 µM
  pIC50: 5.80
Second compound 3.16 µM
  pIC50: 5.94
Second compound 10 µM
  pIC50: 5.92
[1]
  viability, T/C: 109%
[13]
  viability, T/C: 104%
[2]
  viability, T/C: 105%
[14]
  viability, T/C: 35.6%
[15]
  viability, T/C: 11.1%
[16]
  viability, T/C: 10.7%
[3]
  viability, T/C: 109%
[17]
  viability, T/C: 88.3%
[4]
  viability, T/C: 87.7%
[18]
  viability, T/C: 42.6%
[19]
  viability, T/C: 13.2%
[20]
  viability, T/C: 4.44%
[5]
  viability, T/C: 87.7%
[21]
  viability, T/C: 89.4%
[6]
  viability, T/C: 117%
[22]
  viability, T/C: 58.1%
[23]
  viability, T/C: 10.9%
[24]
  viability, T/C: 8.17%
[7]
  viability, T/C: 91.1%
[25]
  viability, T/C: 85.8%
[8]
  viability, T/C: 101%
[26]
  viability, T/C: 74.2%
[27]
  viability, T/C: 15%
[28]
  viability, T/C: 8.18%
[9]
  viability, T/C: 102%
[29]
  viability, T/C: 92.4%
[10]
  viability, T/C: 97.5%
[30]
  viability, T/C: 53.5%
[31]
  viability, T/C: 16.3%
[32]
  viability, T/C: 7.22%
[11]
  viability, T/C: 90.1%
[33]
  viability, T/C: 98.2%
[12]
  viability, T/C: 96.9%
[34]
  viability, T/C: 57.2%
[35]
  viability, T/C: 12.8%
[36]
  viability, T/C: 6.82%
